Experimental data: US20120077802A1 (SUNOVION PHARMACEUTICALS INC., priority 2009, published 2012)
Where two headings read alike, the source gives them in different places.

Experiments:
[1] = target: T1, human histamine H3 receptor (Homo sapiens, UniProt Q9Y5N1); test: H3 GTPγS assay (SPA method), histamine H3 in vitro assay; assay type: biochemical; details: GTPγ[35S] SPA, membranes of cells expressing human H3 receptor; in one embodiment HCl salts tested; read-out: Potency (functional potency as indicated by IC50)
T1 construct: host or cells: cells expressing the human H3 receptor
T1 sequence (Q9Y5N1 whole entry): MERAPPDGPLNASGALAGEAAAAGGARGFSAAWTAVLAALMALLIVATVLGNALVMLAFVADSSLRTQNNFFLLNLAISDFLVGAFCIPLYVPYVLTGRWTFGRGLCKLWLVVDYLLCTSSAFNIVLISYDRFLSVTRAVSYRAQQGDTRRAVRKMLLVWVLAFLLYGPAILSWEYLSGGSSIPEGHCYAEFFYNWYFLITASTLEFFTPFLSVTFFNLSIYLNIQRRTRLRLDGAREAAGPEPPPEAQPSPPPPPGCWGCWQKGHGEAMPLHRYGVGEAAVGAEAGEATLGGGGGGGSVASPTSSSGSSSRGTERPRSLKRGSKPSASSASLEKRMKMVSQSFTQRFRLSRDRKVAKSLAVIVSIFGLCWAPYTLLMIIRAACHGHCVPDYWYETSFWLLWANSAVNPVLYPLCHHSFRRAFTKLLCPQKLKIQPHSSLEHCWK
Protocol: H3 GTPγS assay (SPA method) was performed at EuroScreen (Belgium, ES-392-C) using conventional methods. Briefly, cells expressing the human histamine H3 receptor were homogenized in 15 mM Tris-HCl pH 7.5, 2 mM MgCl2, 0.3 mM EDTA, and 1 mM EGTA. Membranes were washed twice in the above tris buffer, collected by centrifugation (40,000×g, 25 min), and re-suspended in 75 mM Tris-HCl pH 7.5, 12.5 mM MgCl2, 0.3 mM EDTA, 1 mM EGTA, and 250 mM sucrose. Membranes were frozen in liquid nitrogen until use. On the day of the assay, membranes were thawed and diluted in assay buffer (20 mM HEPES pH 7.4, 100 mM NaCl, 10 μg/ml saponin, 1 mM MgCl2) to give 500 μg/ml and mixed (v/v) with GDP in assay buffer for a final GDP concentration of 10 μM and incubated on ice for at least 15 min. PVT-WGA beads (Amersham, RPNQ001) were diluted in assay buffer at 50 mg/mL and mixed with GTPγ[^35S] (Amersham, SJ1308) diluted in assay buffer to give ˜25,000 dpm/10 μL, and mixed vol/vol just before the start of the reaction. The reaction was started by adding 50 μL of test compound, 20 μL of the membranes:GDP mix, 10 μL of buffer, and 20 μL of the GTPγ[^35S]:beads mix in a 96 well plate Optiplate™ (PerkinElmer, 6005299) covered with topseal (TopCount™, PerkinElmer), mixed with an orbital shaker for 2 min, incubated for 1 hour at room temperature, centrifuged for 10 min at 2000 rpm, incubated for 1 h at room temperature, and counted for 1 min in a TopCount™ reader (PerkinElmer). Dose response curves and IC50 values (concentration to inhibit the reaction by 50%) were calculated by nonlinear regression using XLfit software (IDBS).
For antagonists testing, 10 μL of a reference agonist (R-γ-Me-Histamine) instead of 10 μL buffer was added at a concentration corresponding to the EC80 (30 nM). Control ligands were R-γ-Me-Histamine (Tocris, 0569), Imetit (Sigma, I-135), Thioperamide (Tocris, 0644), and Clobenpropit (Tocris, 0754) diluted in assay buffer.
The compounds provided herein were tested in the histamine H3 in vitro assay. In one embodiment, the respective HCl salts of the compounds provided herein were prepared using standard chemical procedures and tested in the histamine H3 in vitro assay.

[2] = In vivo rat PK, brain exposures; details: adult male rats, oral gavage in water; for concentration at 1 hr: 1 hr after dosing, read-out: Compound Concentration (ng/g rat brain) 1 hr; for concentration at 24 hr: 24 hr after dosing, read-out: Compound Concentration (ng/g rat brain) 24 hr
Protocol: In vivo rat PK studies were performed using certain compounds provided herein. In one embodiment, a compound was dissolved in water and was administered to adult male rats (n=3 per time point) by oral gavage at a dose of 3 to 10 mg/kg. The plasma samples were collected and brain tissues were harvested at various time points after dosing, e.g., 15 min, 30 min, 1 hr, 2 hr, and 24 hr after dosing. The PK samples were analyzed; and the compound concentrations in these samples were quantified by LC/MS. The pKa values of the R^6 moiety of the compounds were calculated using ACD Lab (Version 12.01).

| SMILES | IC50 [1] [nM] | further results |
| --- | --- | --- |
| N#Cc1ccc(-c2ccc3c(c2)CC2(CCN(C4CCC4)CC2)O3)cc1 [Compound 5, 4-(1′-Cyclobutyl-3H-spiro[benzofuran-2,4′-piperidine]-5-yl)benzonitrile] | ≤ 10 | concentration at 1 hr ([2]; 5 mg/kg): 3100 ng/g; concentration at 24 hr ([2]; 5 mg/kg): 400 ng/g |
| c1cn2cc(-c3ccc4c(c3)CC3(CCN(C5CCC5)CC3)O4)ccc2n1 [Compound 30, 1′-Cyclobutyl-5-(imidazo[1,2-a]pyridin-6-yl)-3H-spiro[benzofuran-2,4′-piperidine]] | ≤ 10 | concentration at 1 hr ([2]; 10 mg/kg): 5200 ng/g; concentration at 24 hr ([2]; 10 mg/kg): 250 ng/g |
| c1cc2c(cc1CN1CCOCC1)CC1(CCN(C3CCC3)CC1)O2 [Compound 40, 1′-Cyclobutyl-5-(morpholinomethyl)-3H-spiro[benzofuran-2,4′-piperidine]] | ≤ 10 | concentration at 1 hr ([2]; 3 mg/kg): 900 ng/g; concentration at 24 hr ([2]; 3 mg/kg): 140 ng/g |
| c1cc2c(cc1CN1CCCC1)CC1(CCN(C3CCC3)CC1)O2 [Compound 41, 1′-Cyclobutyl-5-(pyrrolidin-1-ylmethyl)-3H-spiro[benzofuran-2,4′-piperidine]] | ≤ 10 | concentration at 1 hr ([2]; 3 mg/kg): < 25 ng/g; concentration at 24 hr ([2]; 3 mg/kg): 450 ng/g |
| Cn1ncc2ccc(-c3ccc4c(c3)CC3(CCN(C5CCC5)CC3)O4)cc21 [Compound 65, 1′-Cyclobutyl-5-(1-methyl-1H-indazol-6-yl)-3H-spiro[benzofuran-2,4′-piperidine]] | ≤ 10 | – |
| Cn1cc2ccc(-c3ccc4c(c3)CC3(CCN(C5CCC5)CC3)O4)cc2n1 [Compound 66, 1′-Cyclobutyl-5-(2-methyl-2H-indazol-6-yl)-3H-spiro[benzofuran-2,4′-piperidine]] | ≤ 10 | – |
| Clc1ccc2c(c1)OC1(CCCN(C3CCC3)CC1)C2 (stereo not drawn) [Compound 67, 6′-Chloro-1-cyclobutyl-3′H-spiro[azepane-4,2′-benzofuran]] | ≤ 1000 | – |
| N#Cc1ccc(-c2ccc3c(c2)OC2(CCCN(C4CCC4)CC2)C3)cc1 (stereo not drawn) [Compound 68, 4-(1-Cyclobutyl-3′H-spiro[azepane-4,2′-benzofuran]-6′-yl)benzonitrile] | ≤ 100 | – |
| c1cn2cc(-c3ccc4c(c3)OC3(CCCN(C5CCC5)CC3)C4)ccc2n1 (stereo not drawn) [Compound 69, 1-Cyclobutyl-6′-(imidazo[1,2-a]pyridin-6-yl)-3′H-spiro[azepane-4,2′-benzofuran]] | ≤ 100 | – |
| c1ccc2c(c1)ncn2-c1ccc2c(c1)OC1(CCCN(C3CCC3)CC1)C2 (stereo not drawn) [Compound 70, 6′-(1H-Benzo[d]imidazol-1-yl)-1-cyclobutyl-3′H-spiro[azepane-4,2′-benzofuran]] | ≤ 10 | – |
| c1cc2c(cc1N1CCCCC1)OC1(CCCN(C3CCC3)CC1)C2 (stereo not drawn) [Compound 71, 1-Cyclobutyl-6′-(piperidin-1-yl)-3′H-spiro[azepane-4,2′-benzofuran]] | ≤ 100 | – |
| N#Cc1ccc(-c2ccc3c(c2)CC2(CCN4CCCCC4C2)O3)cc1 (stereo not drawn) [Compound 74, 4-(-1′,3′,4′,6′,7′,8′,9′,9a′-Octahydro-3H-spiro[benzofuran-2,2′-quinolizin]-5-yl)benzonitrile] | ≤ 10 | – |
| N#Cc1ccc(-c2ccc3c(c2)CC2(CCN4CCCCC4C2)O3)cc1 (stereo not drawn) [Compound 75, 4-(-1′,3′,4′,6′,7′,8′,9′,9a′-Octahydro-3H-spiro[benzofuran-2,2′-quinolizin]-5-yl)benzonitrile] | ≤ 10 | – |
| c1cn2cc(-c3ccc4c(c3)CC3(CCN5CCCCC5C3)O4)ccc2n1 (stereo not drawn) [Compound 76, 5-(Imidazo[1,2-a]pyridin-6-yl)-1′,3′,4′,6′,7′,8′,9′,9a′-octahydro-3H-spiro[benzofuran-2,2′-quinolizine]] | ≤ 10 | – |
| c1cn2cc(-c3ccc4c(c3)CC3(CCN5CCCCC5C3)O4)ccc2n1 (stereo not drawn) [Compound 77, 5-(Imidazo[1,2-a]pyridin-6-yl)-1′,3′,4′,6′,7′,8′,9′,9a′-octahydro-3H-spiro[benzofuran-2,2′-quinolizine]] | ≤ 10 | – |
| c1cc2c(cc1CN1CCOCC1)CC1(CCN3CCCCC3C1)O2 (stereo not drawn) [Compound 78, 5-(Morpholinomethyl)-1′,3′,4′,6′,7′,8′,9′,9a′-octahydro-3H-spiro[benzofuran-2,2′-quinolizine]] | ≤ 10 | – |
| c1cc2c(cc1CN1CCOCC1)CC1(CCN3CCCCC3C1)O2 (stereo not drawn) [Compound 79, 5-(Morpholinomethyl)-1′,3′,4′,6′,7′,8′,9′,9a′-octahydro-3H-spiro[benzofuran-2,2′-quinolizine]] | ≤ 10 | – |
| c1ccc2c(c1)CCN(Cc1ccc3c(c1)CC1(CCN4CCCCC4C1)O3)C2 (stereo not drawn) [Compound 80, 5-((3,4-Dihydroisoquinolin-2(1H)-yl)methyl)-1′,3′,4′,6′,7′,8′,9′,9a′-octahydro-3H-spiro[benzofuran-2,2′-quinolizine]] | ≤ 10 | – |
| c1ccc2c(c1)CCN(Cc1ccc3c(c1)CC1(CCN4CCCCC4C1)O3)C2 (stereo not drawn) [Compound 81, 5-((3,4-Dihydroisoquinolin-2(1H)-yl)methyl)-1′,3′,4′,6′,7′,8′,9′,9a′-octahydro-3H-spiro[benzofuran-2,2′-quinolizine]] | ≤ 10 | – |
| c1cn2cc(-c3ccc4c(c3)CC3(CCC5CCCCN5CC3)O4)ccc2n1 (stereo not drawn) [Compound 83, 5-(Imidazo[1,2-a]pyridin-6-yl)-2′,3′,4′,6′,7′,9′,10′,10a′-octahydro-1′H,3H-spiro[benzofuran-2,8′-pyrido[1,2-a]azepine]] | ≤ 100 | – |
| c1cn2cc(-c3ccc4c(c3)CC3(CCCN5CCCCC5C3)O4)ccc2n1 (stereo not drawn) [Compound 84, 5-(imidazo[1,2-a]pyridin-6-yl)-2′,3′,4′,6′,7′,8′,10′,10a′-octahydro-1′H,3H-spiro[benzofuran-2,9′-pyrido[1,2-a]azepine]] | ≤ 100 | – |
| N#Cc1ccc(-c2ccc3c(c2)CC2(CCC4CCCCN4CC2)O3)cc1 (stereo not drawn) [Compound 85, 4-(2′,3′,4′,6′,7′,9′,10′,10a′-Octahydro-1′H,3H-spiro[benzofuran-2,8′-pyrido[1,2-a]azepin]-5-yl)benzonitrile] | ≤ 10 | – |
| N#Cc1ccc(-c2ccc3c(c2)CC2(CCCN4CCCCC4C2)O3)cc1 (stereo not drawn) [Compound 86, 4-(2′,3′,4′,6′,7′,8′,10′,10a′-octahydro-1′H,3H-spiro[benzofuran-2,9′-pyrido[1,2-a]azepin]-5-yl)benzonitrile] | ≤ 10 | – |
| Brc1ccc2c(c1)CC1(CCN3CCCC3C1)O2 (stereo not drawn) [Compound 89, 5-Bromo-2′,3′,5′,6′,8′,8a′-hexahydro-1′H,3H-spiro[benzofuran-2,7′-indolizine]] | ≤ 100 | – |
| N#Cc1ccc(-c2ccc3c(c2)CC2(CCN4CCCC4C2)O3)cc1 (stereo not drawn) [Compound 90, 4-(2′,3′,5′,6′,8′,8a′-Hexahydro-1′H,3H-spiro[benzofuran-2,7′-indolizin]-5-yl)benzonitrile] | ≤ 10 | – |
| c1cn2cc(-c3ccc4c(c3)CC3(CCN5CCCC5C3)O4)ccc2n1 (stereo not drawn) [Compound 91, 5-(Imidazo[1,2-a]pyridin-6-yl)-2′,3′,5′,6′,8′,8a′-hexahydro-1′H,3H-spiro[benzofuran-2,7′-indolizine]] | ≤ 10 | – |
| c1cc2c(cc1CN1CCOCC1)CC1(CCN3CCCC3C1)O2 (stereo not drawn) [Compound 92, 5-(Morpholinomethyl)-2′,3′,5′,6′,8′,8a′-hexahydro-1′H,3H-spiro[benzofuran-2,7′-indolizine]] | ≤ 10 | – |
| c1ccc2c(c1)CCN(Cc1ccc3c(c1)CC1(CCN4CCCC4C1)O3)C2 (stereo not drawn) [Compound 93] | ≤ 10 | – |
